The NIST ThermoML archive (doi:10.1021/je200140m)
Numbers after ± are expanded uncertainties. Each block holds one compound with its values, some of them ahead of it.

Legend:
[1] = Liquid, Closed cell (Static) method
[2] = refractive index (Na D-line) (dimensionless); conditions: 101.33 kPa, Liquid, Standard Abbe refractometry

vapor or sublimation pressure ([1]; 308.11 K): 114.7 ± 0.9 kPa
vapor or sublimation pressure ([1]; 358.92 K): 550.4 ± 1.4 kPa
refractive index ([2]; 293.1 K): 1.34359 ± 0.00076
SMILES: COC=O [methyl methanoate]

vapor or sublimation pressure ([1]; 308.12 K): 30.8 ± 0.8 kPa
vapor or sublimation pressure ([1]; 335.66 K): 83 ± 1 kPa
refractive index ([2]; 298.1 K): 1.37514 ± 0.00073
SMILES: CCCCCC [hexane]

vapor or sublimation pressure ([1]; 308.1 K): 788 ± 2 kPa
vapor or sublimation pressure ([1]; 308.13 K): 785.2 ± 1.8 kPa
vapor or sublimation pressure ([1]; 335.65 K): 1539.6 ± 2.6 kPa
SMILES: COC [dimethyl ether]

vapor or sublimation pressure ([1]; 358.93 K): 221.4 ± 1 kPa
refractive index ([2]; 293.1 K): 1.32853 ± 0.00073
SMILES: CO [methanol]
